Patent US9877479B2, “Pamoic acid blocks ethelyne signaling” (THE REGENTS OF THE UNIVERSITY OF CALIFORNIA, priority 2010, dated 2018)
“Also recorded” adds a separate entry of the source.

Columns and labels:
Type in all cases: in vivo
[1] = test system: auxin inducible reporter gene called DR5; assay: Auxin inducible reporter gene DR5 expression; settings: auxin treatment; PA especially at high levels
Procedure: The effects of auxin on an auxin inducible reporter gene called DR5 were measured. Normally, auxin treatment results in increased expression of DR5, which is evidenced by blue color in the roots and leaf tip.

[2] = test system: Wild type Arabidopsis seedlings; assay: Ethylene dependent seedling triple response, dark, saturating ethylene
Procedure: (§1) FIG. 5. Wild type Arabidopsis seedlings were grown for four days in the dark in the presence of saturating ethylene (100 ppm) and either 0 or 10 μM pamoic acid after which it was determined whether aspects of the ethylene dependent seedling triple response were affected.
FIG. 6. Wild type Arabidopsis seedlings were grown for four days in the dark in the presence of either the ethylene perception inhibitor AgNO3 or saturating ethylene (100 ppm) along with either 0 or 10 μM pamoic acid. Following this, hypocotyl length and number of seedlings presenting an ethylene dependent apical hook in the presence of saturating ethylene (shown as percentages) were determined (n=40).
FIG. 7. Wild type Arabidopsis seedlings were grown for four days in the dark in the presence of either air or saturating ethylene (100 ppm) along with either 0 or 10 μM pamoic acid. Following this, root length was measured for each treatment (n=40).
(§2) This is a dark phenotype that results in severe stunting of shoot and root growth along with a pronounced apical hook in the presence of saturating ethylene. This phenotype is ultimately conditioned by auxin acting through ethylene. […] FIG. 5 represents a mutant that has constitutive ethylene signaling (ctr1) and FIGS. 6 and 7 represents wild type treated with ethylene+/−PA.

[3] = test system: Mutant Arabidopsis seedlings (ctrl-3); assay: Constitutive ethylene response phenotype of mutant seedlings
Procedure: FIG. 3. Mutant Arabidopsis seedlings (ctrl-3) that have a constitutive ethylene response phenotype, including severe root shortening dependent on unregulated ethylene signaling, were grown in the light in nutrient medium supplemented with either 0 or 10 μM pamoic acid for 7 days. Following this, roots of each were measured (n=40).
as §1, §2

[4] = test system: Flowers of Dianthus caryophyllus (carnation); assay: Ethylene dependent flower senescence of cut carnations; settings: cut flowers in water supplemented with 50 μM pamoic acid, observed to Day 8
Procedure: FIG. 8. Flowers of Dianthus caryophyllus (carnation) were harvested and immediately placed cut side down into either water or water supplemented with 50 μM pamoic acid.

seedling roots [5] = assay: Growth of seedlings on increasing amounts of PA (root growth)
Procedure: (§3) This is not a toxicity issue in due to the data in panels 10B and C. In panel 10B, seedlings were grown in the absence or presence of a highly inhibitory amount of NAA. A subset of these seedlings also had PA added to them. […] Gravitropism is a well know auxin dependent phenomenon.

seedling roots [6] = assay: Root growth in presence of a highly inhibitory amount of NAA, with or without PA; settings: PA added
Procedure: as §3

wild type roots = assay: Gravitropic response of seedlings
Procedure: as §3

ethylene inducible genes = assay: Ethylene inducible gene expression in presence of PA; settings: ethylene treatment in the presence of PA (panel 12A); listed as PA
Procedure: (§4) Since PA reduces ethylene response, it was natural to assume that it would also reduce ethylene mediated gene expression. […] PA was then tested on gene expression that was dependent on auxin and ethylene.

[7] = test system: genes that require both ethylene and auxin for induction; assay: Expression of genes dependent on auxin and ethylene in presence of PA; settings: in the presence of PA (panel 12B)
Procedure: as §4

[8] = wild type, four days in the dark, saturating ethylene (100 ppm), 10 μM pamoic acid

Row | SMILES | DR5 expression [1] | ethylene response phenomena including apical hook formation and root growth inhibition ([2]; wild type treated with ethylene +/- PA (FIGS. 6 and 7)) | ethylene dependent apical hook [2, 8] | root length compared to seedlings not treated with pamoic acid [2, 8] | constitutive ethylene response of ctrl-3 mutants ([3]; ctrl-3 mutants) | ethylene response phenomena including apical hook formation and root growth inhibition ([3]; mutant with constitutive ethylene signaling (ctr1), FIG. 5) | petal inrolling or petal senescence [4] | root growth at high concentrations of PA (seedling roots [5]; high concentrations of PA) | root length with increasing amounts of PA (seedling roots [5]; increasing amounts of PA) | length of PA+NAA treated roots relative to NAA treated roots (seedling roots [6]) | gravitropism of roots and shoots (wild type roots; in the presence of PA) | gravitropic response of seedling roots (wild type roots; wild type roots treated with PA) | expression of ethylene inducible genes following ethylene treatment (ethylene inducible genes) | expression of two genes that require both ethylene and auxin for induction [7]
1 | CC(C)(Oc1ccc(Cl)cc1)C(=O)O [CPIB, reference compound] | eliminates DR5 expression |  |  |  |  |  |  |  |  |  |  |  |  | 
2 | O=C(O)c1cc2ccccc2c(Cc2c(O)c(C(=O)O)cc3ccccc23)c1O [pamoic acid, Pamoic acid] | reduced or eliminated DR5 expression | strictly blocks | elimination of the ethylene dependent apical hook | significant increase in root length | reversing the constitutive ethylene response | strictly blocks | no evidence of petal inrolling or petal senescence even after Day 8 | almost completely block root growth | progressively shorter roots | nearly double the length of NAA treated roots | both roots and shoots become agravitropic | completely destroys the gravitropic response | also upregulated in the presence of PA; also recorded: normally upregulated following ethylene treatment even in the presence of PA | extremely reduced
